Results on 4 compounds are retold here after article PMC6013791 (Chemical Science, 2016).

Test [1] deals with T1, CXCR4 (Homo sapiens, UniProt P61073). The test can be described thus: Ligand efficiency from ChEMBL19 CXCR4 ligand data. The note with it: LE = 1.4pAffinity/nheavy_atoms, from ChEMBL19 CXCR4 data ref 28.
Test [2] addresses T1, CXCR4. The settings on record: cited from earlier work.
For test [3], the target named is T1, CXCR4. In words: CXCR4 arrestin assay. It is filed as cell-based. The settings on record: 30 μM, exploitive and hit expansion iterations.

Molecules are shown by their SMILES. Where a SMILES comes first, the peptide text is derived from it. Bridges are numbered along the chain shown (N, C = ends). [ ]: non-standard residue; d: D form. hArg = N=C(N)NCCCC[C@H](N)C(=O)O; Mpa = O=C(O)CCS

T1 sequence (P61073 whole entry): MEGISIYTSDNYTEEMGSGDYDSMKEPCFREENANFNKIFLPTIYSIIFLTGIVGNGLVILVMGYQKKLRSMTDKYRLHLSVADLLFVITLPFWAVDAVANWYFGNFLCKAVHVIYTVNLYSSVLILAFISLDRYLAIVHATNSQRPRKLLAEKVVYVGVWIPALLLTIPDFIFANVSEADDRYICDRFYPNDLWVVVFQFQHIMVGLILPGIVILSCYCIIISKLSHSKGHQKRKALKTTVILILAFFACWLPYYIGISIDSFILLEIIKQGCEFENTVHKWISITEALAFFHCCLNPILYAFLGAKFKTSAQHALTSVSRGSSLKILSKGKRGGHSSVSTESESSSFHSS

For the compound `c1cc2nc(c1)CCNCCN(Cc1ccc(CN3CCNCCc4cccc(n4)CCNCC3)cc1)CCNCC2` [CHEMBL1202231], in test [1], the “ligand efficiency (LE)” value worked out at 0.32.

For `c1ccc(NCc2ccc(CNc3ccccn3)cc2)nc1` [ChEMBL237830], the “ligand efficiency (LE)” value in test [1] amounted to 0.56.

For `C[C@H](NC(=O)[C@H](CCCN=C(N)N)NC(=O)c1ccc(CNCc2ccccn2)cc1)c1cccc2ccccc12` [KRH-1636], in test [2], the EC50 was 18 nM.

Take `N=C(N)NCCCC[C@@H]1NC(=O)CCSSC[C@@H](C(N)=O)NC(=O)[C@@H]2CCCN2C(=O)[C@H](Cc2c[nH]c3ccccc23)NC(=O)[C@H](CC(=O)O)NC(=O)CNC1=O` [integrilin] ([Mpa][hArg]GDWPC-NH2; disulfide 1-7 (inferred)): the “activity in the arrestin assay” value in test [3] is recorded as “lack of activity”.
